According to patent publication US8501734B2, “Medical intervention in haematological cancers” (Oncotyrol-Center for Personalized Cancer Medicine GmbH …, priority 2008, dated 2013):

Columns and labels:
U266 cells = experiment: Annexin V/PI apoptosis assay (FACS), U266 cells; format: cell-based; parameters: apoptosis induction: unit not given here; conditions: for apoptosis induction: Imi 20 μg/ml alone; on apoptosis induction: key: 0 for no; + for low; ++: + indicates the range of apoptosis induction; +++: + indicates the range of apoptosis induction; ++++ for very strong apoptosis induction
Method: (§1) After treatment adherent cells were trypsinized (as described before), and resuspended in corresponding full medium. Suspension cells or trypsinized adherent cells, supernatant and washing solution (1×PBS from washing before trypsinization) were pooled and then spun down (300 g for 3 min) washed in 2 ml and resuspended in 1000 of annexin V binding buffer and mixed with 2 μg/ml annexin V-Allophycocyanin (APC) (BD-Pharmingen, San Diego, Calif., USA) and 50 ng/ml of propidium iodide (PI; Sigma Aldrich). At least 10.000 cells were measured per sample using a Becton Dickinson FACSCalibur flow Cytometer (San Jose, Calif., USA). Percentage of Annexin V negative and PI negative cells were depicted in the figures. For the analysis of the pro-apoptotic activity of Imiquimod® in primary MM cells and non-malignant BMMCs, 5×10^5 cells BMMCs cells were treated with or without 40 μg/ml Imiquimod® for the indicated time periods. Cells were then harvested and washed twice with PBS. Detection of apoptotic cells was performed using the annexin V/PI assay according to manufacturers' instruction. Briefly, BMMCs were stained with a mixture of annexin V/FITC (Alexis Coorp., Laeufelfingen, Switzerland), propidium iodide (Sigma), anti-CD38-PE and anti-CD45-PC5 for 15 min at room temperature and immediately analyzed by flow cytometry. The percentages of viable cells (i.e. cells negative for annexin V/FITC and PI) within the MM (CD38^posCD45^low/absent) and non-MM fraction (CD38^neg/CD45^pos) were determined by flow cytometry.
(§2) Adherent cells were grown in 24-well plates to confluence and treated with 40 μg/ml Imiquimod® for 24 h. Cells were then trypsinized, suspended in full medium, stained for AnnexinV/PI and apoptosis was measured as described before. Suspension cells (250.000) were treated with 40 μg/ml Imiquimod® for 24 h, stained for Annexin/PI and apoptosis was measured as described above (Annexin V/Propidium Iodide apoptosis Assay).
(§3) OPM-2 and U266 cells (2.5×10^5 in 500 μl) were treated with either Imiquimod® alone (10 μg/500 μl), various inhibitors/drugs alone or with the combination of Imiquimod® and inhibitors for 24 or 48 h. In the controls the solvent of the drug has been added in appropriate amounts. Cells were then AnnexinV/PI stained and apoptosis measured as described before.

melanoma cells = conditions: 50 μg/ml, 24 h; cited from earlier work
OPM2 cells [1] = experiment: PARP cleavage assay (Western blot), OPM2 cells; format: cell-based; conditions: 40 μg/ml
Method: Cells were lysed in lysis-IP-Buffer supplemented with protease inhibitors and sodium orthovanadate. 10 μg of lysate were separated by SDS-PAGE (10% polyacrylamide) and transferred to methanol activated Hypond-P PVDF-membranes (Amersham, Freiburg, Germany) by semi-dry blotting. Membranes were blocked in a 3% bovine serum albumin solution or 5% non fat dry milk solution in phosphate buffered saline (PBS) with 0.1% Tween 20 (PBT). Primary antibodies were applied in blocking solution for 1 h at room temperature or over night at 4° C. Membranes were washed in PBT and incubated with corresponding secondary antibodies in 5% non fat dry milk in PBT for 1 h at room temperature. Cells were washed with PBT, incubated with ECL solution and exposed in a Fluorchem 5500 (Biozym, Oldendorf, Germany).
OPM2 cells were suspended in full medium and cultured in 24-well plates at a cell density of 500.000 cells/ml and well. Cells were left untreated (control) or treated over night with different concentrations of Imiquimod® (10, 20 or 40 μg/ml).
OPM2 cells were cultured in 24-well plates as described above. Imiquimod® (40 μg/ml) was added to cells (except controls) for different time periods (2, 4, 6 and 8 h) and the extent of PARP1 cleavage, IRAK1, IkB-α and IkB-β degradation were determined by Western blot. α-Tubulin was used as a loading control.

NCI cells = experiment: Annexin V/PI apoptosis assay, NCI cells; format: cell-based; conditions: 40 μg/ml, 24 h
Method: as §1, with “For the analysis of the pro-apoptotic activity of Imiquimod® in primary MM cells and non-malignant BMMCs, 5×10^5 cells BMMCs cells were treated with or without 40 μg/ml Imiquimod® for the indicated time periods. Cells were then harvested and washed twice with PBS. Detection of apoptotic cells was performed using the annexin V/PI assay according to manufacturers' instruction.” left out
(§4) Adherent cells were grown in 24-well plates to confluence and treated with 40 μg/ml Imiquimod® for 24 h. Cells were then trypsinized, suspended in full medium, stained for AnnexinV/PI and apoptosis was measured as described before. […]

[2] = tested on: primary MM cells (CD38highCD45low); experiment: Annexin V/PI apoptosis assay, primary MM cells from patient bone marrow aspirates; format: cell-based, human; conditions: 40 μg/ml, 8 h or 24 h, time dependent
Method: For collection of primary multiple myeloma cells, bone marrow aspirates from iliac crests were collected during routine examinations after obtaining informed patient consent. Bone marrow mononuclear cells (BMMCs) were separated by density centrifugation. Fresh blood samples were diluted 1:1 with RPMI 1640 medium and layered over Biocoll separating solution (1.077 g/ml, Biochrom AG, Berlin; blood/RPMI1640/Biocoll; 1:1:1, v/v/v). Centrifugation was carried out for 20 min at 400 g. […] The percentage of multiple myeloma cells within the BMMCs was determined by flow cytometry. Briefly, 2×10^5 cells were stained for 15 min with fluorochrome-labelled antibodies to CD38 (phycoerythrin, PE) and CD45 (phycoerythrin-cyanin 5, PC5) (both from Beckman Coulter Inc., Fullerton, Calif., USA), washed with PBS and were immediately analyzed using the FC500 flow cytometer and the RXP1.0 software (Beckman Coulter). MM cells were detected by their high expression of CD38 and weak to absent expression of CD45.
After treatment adherent cells were trypsinized (as described before), and resuspended in corresponding full medium. […] At least 10.000 cells were measured per sample using a Becton Dickinson FACSCalibur flow Cytometer (San Jose, Calif., USA). […]

OPM2 cells [3] = experiment: Growth of OPM2 cells under multiple low doses (cell counting); format: cell-based
Method: 2×10^5 OPM2 cells in 1 ml of full medium were cultured in 24-well plates in duplicates for 8 days. For the first three days the appropriate amount of Imiquimod® (1, 2, 5, 5, or 10 μg/ml) was added daily. For determination of absolute cell numbers 100 μl of cell suspension were taken on days 1-5 and day 8 and cell number was determined using the CASY Cell Counter Model DT (Schärfe System GmbH, Reutlingen, Germany). On the fourth day cells were spun down (200 g, 2 min) and 600 μl of the remaining 700 μl of supernatant (100 μl were left to keep cell pellet undisturbed) were removed and 600 μl of fresh full medium was added to the cell culture.

OPM2 cells [4] = experiment: Annexin V/PI apoptosis assay (FACS), OPM2 cells; format: cell-based; parameters: apoptosis induction: unit not given here
Method: as §1
Cells were cultured as described before and, treated with 40 μg/ml Imiquimod® or Gardiquimod® for 24 h, and apoptosis was assayed by AnnexinV/PI staining and FACS analysis.
as §2, §3

[5] = tested on: human epidermoid carcinoma cell line A431; experiment: Apoptosis induction in A431 cells; format: cell-based
Method: as §1, with “For the analysis of the pro-apoptotic activity of Imiquimod® in primary MM cells and non-malignant BMMCs, 5×10^5 cells BMMCs cells were treated with or without 40 μg/ml Imiquimod® for the indicated time periods. Cells were then harvested and washed twice with PBS. Detection of apoptotic cells was performed using the annexin V/PI assay according to manufacturers' instruction.” left out
as §4

## CC(C)Cn1cnc2c(N)nc3ccccc3c21 [Imiquimod, 1-(2-methylpropyl)-1H-imidazo[4,5-c]quinolin-4-amine]
U266 cells; 40 μg/ml, 24 h
  cells dying upon treatment: about 30%
U266 cells; 24 h
  apoptosis induction: +
U266 cells; 48 h, listed as Imi
  apoptosis induction: + and ++
Melanoma cells
  apoptotic cells: 15.8%
OPM2 cells [1]; 2 hours after application
  PARP cleavage: some PARP cleavage
OPM2 cells [1]; 6 h to 8 h after application
  apoptosis induction in PARP cleavage assay: 100%
OPM2 cells [1]; after 6 hours
  PARP cleavage: nearly complete PARP cleavage
OPM2 cells [1]; multiple myeloma cells
  onset of apoptosis induction: 2 h
NCI cells
  apoptotic cells: 90%
[2]
  apoptosis induction: significantly induced apoptosis
OPM2 cells [3]; 3-times given dose of 10 μg/ml
  cell growth inhibition: sufficient to irreversibly inhibit cell growth
OPM2 cells [3]; triple treatment with 5 μg/ml
  cell growth inhibition: sufficient to significantly block the growth potential
OPM2 cells [4]; OPM2 cells, 24 h, Imi 20 μg/ml alone
  apoptosis induction: +
OPM2 cells [4]; OPM2 cells, 24 h, Imiquimod 20 μg/ml or Akt inhibitor alone
  apoptosis induction, single agent: some apoptosis
OPM2 cells [4]; OPM2 cells, 48 h, Imi 20 μg/ml alone
  apoptosis induction: ++
OPM2 cells [4]; multiple myeloma cells, 10 μg/ml, 24 h
  apoptosis induction: apoptosis induction
OPM2 cells [4]; multiple myeloma cells, 40 μg/ml
  apoptosis induction in AnnexinV/PI FACS analysis assay: 70%
[5]
  apoptosis induction: no significant apoptosis induction
